Where two headings read alike, the source gives them in different places. Values belong to the molecule of their own block, whether it stands above or below them.
How the values were obtained:
[1] = prevention and control of acute and delayed chemotherapy induced nausea and vomiting; cited from earlier work
[2] = IV infusion; cited from earlier work
[3] = Solubility of aprepitant in aqueous surfactant solutions; assay type: physicochemical; settings: water alone as solvent
From the text: However, in a typical injectable formulation at Polysorbate 80 concentration of 10% w/v, it would require 7 grams of surfactant, and at Polysorbate 80 concentration of 30% w/v, it would require 9 grams of surfactant to solubilize the aprepitant. Unfortunately, such high quantities of surfactant are entirely unsuitable for injectable formulations (e.g., due to hypersensitivity issues related to polysorbate, foam formation during mixing, etc.). Table 2 below illustrates typical solubility data for aprepitant using water alone as solvent.

[4] = Solubility of aprepitant in water or ethanol/water with polysorbate 80; assay type: physicochemical
From the text: The inventors further tested whether co-solvents (i.e., solvents in addition to water) in combination with surfactants would improve solubility of aprepitant. […] In most preferred aspects, a relatively low concentration of nonionic surfactant was chosen in a co-solvent mixture of ethanol and water, and Tables 3-5 below exemplarily illustrate the results of such combination.
More specifically, Table 3 depicts solubility results of aprepitant in water without ethanol at surfactant concentrations noted in the table.
Likewise, Table 4 depicts solubility results of aprepitant in an ethanol/water mixture of (30 vol % EtOH, 70 vol % H2O) at surfactant concentrations noted in the table, and Table 5 depicts solubility results of aprepitant in an ethanol/water mixture of (55 volume % EtOH, 45 vol % H2O) at surfactant concentrations noted in the table.

[5] = cited from earlier work
[6] = given orally, nanoparticulate composition; cited from earlier work
[7] = cited from earlier work; remark: listed apart in the source
[8] = Solubilization of aprepitant by pH (pKa, pH-dependent solubility); assay type: physicochemical
Procedure: Indeed, to be soluble in aqueous solution, a pH of greater than 11.7 is required. However, a formulation with such a high pH is not suitable for injection. Moreover, the instant such a formulation is diluted in blood, the pH will change to about pH 7.4, which will lead to rapid precipitation of the drug. […] Similar problems were also encountered where aprepitant is dissolved in a water/ethanol solvent mixture where ethanol is at about 50 volume 9 concentration. Here, dilution that would occur at the injection site would lead to precipitation of the drug and so might lead to chemo-embolism.

[9] = Solubility of aprepitant in ethanol with the balance water; assay type: physicochemical
From the text: Thus, while the above approaches using complexing agents and/or co-solvents led to a soluble form of aprepitant in at least some instances, concentration of aprepitant is relatively low, and aprepitant tends to precipitate out upon further dilution. As is already known in the art, solubility of aprepitant increases exponentially with increasing concentration of ethanol as shown in Table 1 in the background section. Moreover, maximum allowed concentrations of ethanol in a drug formulation are typically at or below 49 volume %. […] Moreover, and as already noted above, an ethanol/water solvent system is not suitable for injection as aprepitant will rapidly precipitate upon dilution at the injection site.

[10] = Solubility of aprepitant in polysorbate 80 solutions after pre-solubilisation in DMAC; assay type: physicochemical
Procedure: The inventors also tested whether solubility of aprepitant in aqueous polysorbate 80 solutions could be improved when aprepitant was pre-solubilized in a secondary solvent (e.g., dimethylacetamide (DMAC)). […] Remarkably, when the inventors directly added 200 μL of DMAC solubilized in 10 mL of water to 100 mg aprepitant (i.e., without surfactant), aprepitant was not detected in the solution phase.

Structure (SMILES): C[C@@H](O[C@H]1OCCN(Cc2nc(O)n(P(=O)(O)O)n2)[C@H]1c1ccc(F)cc1)c1cc(C(F)(F)F)cc(C(F)(F)F)c1 [Fosaprepitant]
comparison to aprepitant [1]: non-inferiority and bioequivalency | time for conversion to aprepitant [2]: less than 30 minutes

Aprepitant Conc. ([3]; Cremophor RH 40 10 % w/v): 1.24 mg/mL | Aprepitant Conc. ([3]; Cremophor RH 40 30 % w/v): 3.51 mg/mL | Aprepitant Conc. ([3]; Cremophor RH 60 10 % w/v): 1.24 mg/mL | Aprepitant Conc. ([3]; Poloxamer 188 30 % w/v): 1.24 mg/mL | Aprepitant Conc. ([3]; Polysorbate 80 10 % w/v): 1.85 mg/mL | Aprepitant Conc. ([3]; Polysorbate 80 30 % w/v): 4.42 mg/mL | Aprepitant Conc. ([4]; 30 vol % EtOH, 70 vol % H2O, Polysorbate 80 11 mg/mL): 0.560 mg/mL | Aprepitant Conc. ([4]; 30 vol % EtOH, 70 vol % H2O, Polysorbate 80 44 mg/mL): 0.793 mg/mL | Aprepitant Conc. ([4]; 30 vol % EtOH, 70 vol % H2O, no Polysorbate 80): 0.0232 mg/mL | Aprepitant Conc. ([4]; 55 volume % EtOH, 45 vol % H2O, Polysorbate 80 11 mg/mL): 1.936 mg/mL | Aprepitant Conc. ([4]; 55 volume % EtOH, 45 vol % H2O, Polysorbate 80 22 mg/mL): 3.309 mg/mL | Aprepitant Conc. ([4]; 55 volume % EtOH, 45 vol % H2O, Polysorbate 80 44 mg/mL): 4.182 mg/mL | Aprepitant Conc. ([4]; 55 volume % EtOH, 45 vol % H2O, no Polysorbate 80): 3.3 mg/mL | Aprepitant Conc. ([4]; water without ethanol, Polysorbate 80 11 mg/mL): 0.179 mg/mL | Aprepitant Conc. ([4]; water without ethanol, Polysorbate 80 22 mg/mL): 0.308 mg/mL | Aprepitant Conc. ([4]; water without ethanol, Polysorbate 80 44 mg/mL): 0.505 mg/mL | pH required to be soluble in aqueous solution ([8]; aqueous solution): greater than 11.7 | solubility in concentrated formic acid ([8]; concentrated formic acid): soluble | behaviour on dilution of formic acid solution ([8]; twofold dilution with aqueous medium): precipitated almost immediately | Aprepitant Conc. ([9]; Ethanol Conc. (v/v) 10, balance water): 0.0001 mg/mL | Aprepitant Conc. ([9]; Ethanol Conc. (v/v) 30, balance water): 0.0232 mg/mL | Aprepitant Conc. ([9]; Ethanol Conc. (v/v) 50, balance water): 1.76 mg/mL | Aprepitant Conc. ([9]; Ethanol Conc. (v/v) 55, balance water): 3.30 mg/mL | Aprepitant Conc. ([9]; Ethanol Conc. (v/v) 60, balance water): 5.1 mg/mL | Aprepitant Conc. ([9]; Ethanol Conc. (v/v) 70, balance water): 12.8 mg/mL | Aprepitant Conc. ([9]; Ethanol Conc. (v/v) 90, balance water): 21.8 mg/mL | aprepitant in the solution phase ([10]; 200 μL DMAC in 10 mL water added directly to 100 mg aprepitant, without surfactant): not detected | Aprepitant Conc. ([10]; Directly Added, Polysorbate 80 10 % w/v): 1.85 mg/mL | Aprepitant Conc. ([10]; Directly Added, Polysorbate 80 30 % w/v): 4.42 mg/mL | Aprepitant Conc. ([10]; Prior Solubilization in DMAC, Polysorbate 80 5 % w/v): 0.85 mg/mL | Aprepitant Conc. ([10]; Prior Solubilization in DMAC, Polysorbate 80 10 % w/v): 2.03 mg/mL | Aprepitant Conc. ([10]; Prior Solubilization in DMAC, Polysorbate 80 15 % w/v): 3.13 mg/mL | Aprepitant Conc. ([10]; Prior Solubilization in DMAC, Polysorbate 80 20 % w/v): 4.35 mg/mL | Aprepitant Conc. ([10]; Prior Solubilization in DMAC, Polysorbate 80 30 % w/v): 4.80 mg/mL
Structure (SMILES): C[C@@H](O[C@H]1OCCN(Cc2nc(=O)[nH][nH]2)[C@H]1c1ccc(F)cc1)c1cc(C(F)(F)F)cc(C(F)(F)F)c1 [Aprepitant, 5-([(2R,3S)-2((R)-1-[3,5-bis(trifluoromethyl)phenyl]ethoxy)-3-(4-fluoro-phenyl)morpholino]methyl)-1H-1,2,4-triazol-3(2H)-one]
pka [5]: 9.7 | bioavailability [6]: 60-65% | solubility (descriptive) ([7]; acetonitrile): slightly soluble | solubility (descriptive) ([7]; ethanol): sparingly soluble | solubility (descriptive) ([7]; isopropyl acetate): sparingly soluble | solubility (descriptive) ([7]; oil (as is well established)): substantially insoluble | solubility (descriptive) ([7]; water (as is well established)): substantially insoluble | solubility (descriptive) ([7]; water): practically insoluble

— US9968614B2, “Aprepitant injectable formulations” (InnoPharma, Inc., priority 2012, dated 2018)
